Each structure is given as a SMILES string.

The text below walks through data of patent US20240423984A1, “COMBINATION THERAPIES OF KRAS G12D INHIBITORS WITH SHP-2 INHIBITORS” (MIRATI THERAPEUTICS, INC., priority 2021, published 2024).

What all share (assay type): in vivo, nude/nude mice
The subject of one test is Panc 02.03 cells. Briefly: Panc 02.03 pancreatic cancer xenograft tumor volume. The note with it: for Average Tumor Volumes: Panc 02.03 tumor bearing mice. How it is done: (§1) Immunocompromised nude/nude mice are inoculated in the right hind flank with cells harboring a KRas G12D mutation. When tumor volumes reach between 200-400 mm^3 in size, the mice are divided into four to five groups of 5 mice each. The first group is administered vehicle only. […] The fourth group is administered the single agent dose of the KRas G12D inhibitor using the twice daily for 2 sequential days followed by 5 days off schedule in combination with the single agent dose of the SHP-2 inhibitor. The treatment period varies from cell line to cell line but typically is between 15-28-days. Tumor volumes are measured using a caliper every two three days and tumor volumes are calculated by the formula: […].
(§2) 20 to 25 nude/nude mice per study were inoculated in the right hind limb with 5×10^6 LS180 cells, GP2D cells, Panc 02.03 cells, or AsPC-1 cells. When tumor volumes reached ˜200 mm^3-400 mm3 (study day 0) 5 mice in each of the groups were administered i.p. vehicle only (10% captisol in 50 mM citrate buffer pH 5.0), 30 mg/kg of Kras G12) inhibitor MRTX1133 (10% captisol in 50 mM citrate buffer, pH 5.0) either on the twice daily schedule or the twice daily for 2 consecutive days followed by 5 days off schedule, 10 mg/kg twice daily of the TNO-155 (0.5% methylcellulose and 0.1% Tween 80 in water) SHP2 inhibitor or 30 mg/kg once daily of the RMC-4550 (10% captisol in 50 mM citrate buffer pH 5.0) SHP2 inhibitor, or 30 mg/kg of Kras G12D inhibitor on either schedule and either TNO-155 or RMC-4550. Tumor volumes, measured at pre-specified days, for the five mice per group were averaged and are reported for LS180, GP2D, Panc 02.03, and AsPC-1 in Tables 2, 3, 4 and 5, respectively.
Experimental Procedures. 25 nude/nude mice were inoculated with Panc 02.03 cells in the right hind flank. When the tumors reached ˜300 mm^3 four treatment groups were established with five mice per group.

The subject of another test is GP2D cells. Briefly: GP2D colon cancer xenograft tumor volume. Particulars: for Average Tumor Volumes: GP2D TGI-38 tumor bearing mice. How it is done: as §1, §2
20 nude/nude mice were inoculated with GP2D cells in the right hind flank. When the tumors reached ˜300 mm^3 four treatment groups were established with five mice per group.

The next test has as its system AsPC-1 cells. Briefly: AsPC-1 pancreatic cancer xenograft tumor volume. Particulars: for Average Tumor Volumes: AsPC-1 tumor bearing mice. How it is done:
as §1, §2
Experimental Procedures. 20 nude/nude mice were inoculated with AsPC-1 cells in the right hind flank. When the tumors reached ˜200 mm^3 four treatment groups were established with five mice per group.

A further test has as its system LS180 cells. The experiment in a line: LS180 colon cancer xenograft tumor volume. The note with it: for Average Tumor Volumes: LS180 tumor bearing mice, TNO155 10 mg/kg BID Daily. How it is done:
as §1, §2
25 nude/nude mice were inoculated with LS180 cells in the right hind flank. When the tumors reached ˜250 mm^3 five treatment groups were established with five mice per group.

Where [1] appears, read: MRTX1133 30 mg/kg BID Daily, Study Day 1.
Where [2] appears, read: TNO155 10 mg/kg BID Daily, Study Day 1.

Consider `C#Cc1c(F)ccc2cc(O)cc(-c3ncc4c(N5C[C@H]6CC[C@@H](C5)N6)nc(OC[C@@]56CCCN5C[C@H](F)C6)nc4c3F)c12` [MRTX1133, 4-(4-((1R,5S)-3,8-diazabicyclo[3.2.1]octan-3-yl)-8-fluoro-2-(((2R,7aS)-2-fluorohexahydro-1H-pyrrolizin-7a-yl)methoxy)pyrido[4,3-d]pyrimidin-7-yl)-5-ethynyl-6-fluoronaphthalen-2-ol], for which the tumor regression in the test with Panc 02.03 cells (Panc 02.03, MRTX1133 30 mg/kg BID, daily administration, single agent, Day 22) was −33%; in the test on AsPC-1 cells (AsPC-1, MRTX1133 30 mg/kg BID daily, single agent, Day 23) it was −28%. Moreover, the “Average Tumor Volumes” value with Panc 02.03 cells (setting [1]) turned out to be 329.056 mm^3; with Panc 02.03 cells (MRTX1133 30 mg/kg BID Daily, Study Day 4) it was 282.836 mm^3; with Panc 02.03 cells (MRTX1133 30 mg/kg BID Daily, Study Day 8), 208.15 mm^3; in the test with Panc 02.03 cells (MRTX1133 30 mg/kg BID Daily, Study Day 11) it was 189.782 mm^3; with Panc 02.03 cells (MRTX1133 30 mg/kg BID Daily, Study Day 15), 205.992 mm^3; with Panc 02.03 cells (MRTX1133 30 mg/kg BID Daily, Study Day 18), 227.806 mm^3. Moreover, the “Average Tumor Volumes” value in the test with Panc 02.03 cells (MRTX1133 30 mg/kg BID Daily, Study Day 22) was found to be 220.912 mm^3; with GP2D cells (MRTX1133 30 mg/kg BID Daily, Study Day 31) it was 333.196 mm^3; in the test on AsPC-1 cells (setting [1]) it was 193.378 mm^3; in the test with AsPC-1 cells (MRTX1133 30 mg/kg BID Daily, Study Day 6), 168.124 mm^3; in the test with AsPC-1 cells (MRTX1133 30 mg/kg BID Daily, Study Day 9), 146.75 mm^3; in the test with AsPC-1 cells (MRTX1133 30 mg/kg BID Daily, Study Day 13), 143.612 mm^3. Moreover, the “Average Tumor Volumes” value in the test on AsPC-1 cells (MRTX1133 30 mg/kg BID Daily, Study Day 16) is listed as 120.916 mm^3; with AsPC-1 cells (MRTX1133 30 mg/kg BID Daily, Study Day 20), 119.264 mm^3; in the test on AsPC-1 cells (MRTX1133 30 mg/kg BID Daily, Study Day 23), 139.296 mm^3.

On to `Cc1nc(N2CCC3(CC2)CO[C@@H](C)[C@H]3N)c(CO)nc1-c1cccc(Cl)c1Cl` [RMC-4550, (3-((3S,4S)-4-amino-3-methyl-2-oxa-8-azaspiro[4.5]decan-8-yl)-6-(2,3-dichlorophenyl)-5-methylpyrazin-2-yl)methanol], for which the “Average Tumor Volumes” value in the test on GP2D cells (RMC-4550 30 mg/kg Once Daily, Study Day 1) worked out at 300.014 mm^3; in the test on GP2D cells (RMC-4550 30 mg/kg Once Daily, Study Day 7), 353.148 mm^3; with GP2D cells (RMC-4550 30 mg/kg Once Daily, Study Day 10), 398.576 mm^3; in the test on GP2D cells (RMC-4550 30 mg/kg Once Daily, Study Day 14), 497.714 mm^3; with GP2D cells (RMC-4550 30 mg/kg Once Daily, Study Day 17) it was 530.072 mm^3; in the test on GP2D cells (RMC-4550 30 mg/kg Once Daily, Study Day 21), 567.882 mm^3. Besides, the “Average Tumor Volumes” value with GP2D cells (RMC-4550 30 mg/kg Once Daily, Study Day 26) came to 685.836 mm^3; with GP2D cells (RMC-4550 30 mg/kg Once Daily, Study Day 28), 807.148 mm^3; in the test with GP2D cells (RMC-4550 30 mg/kg Once Daily, Study Day 31), 970.626 mm^3; with GP2D cells (RMC-4550 30 mg/kg Once Daily, Study Day 35), 1027.032 mm^3. For the same compound, the tumor growth inhibition in the test with GP2D cells (GP2D, RMC-4550 30 mg/kg QD, single agent, Day 35) turned out to be 56%.

For `C[C@@H]1OCC2(CCN(c3cnc(Sc4ccnc(N)c4Cl)c(N)n3)CC2)[C@@H]1N` [TNO155], the tumor growth inhibition with Panc 02.03 cells (Panc 02.03, TNO155 10 mg/kg BID daily, single agent, Day 22) was found to be 58%; with LS180 cells (LS180, TNO155 10 mg/kg BID daily, single agent, Day 15), 48%; in the test on AsPC-1 cells (AsPC-1, TNO155 10 mg/kg BID daily, single agent, Day 23), 0%. For the same compound, the “Average Tumor Volumes” value with Panc 02.03 cells (setting [2]) is listed as 330.644 mm^3; in the test on Panc 02.03 cells (TNO155 10 mg/kg BID Daily, Study Day 4), 365.57 mm^3; with Panc 02.03 cells (TNO155 10 mg/kg BID Daily, Study Day 8) it was 469.4 mm^3; in the test with Panc 02.03 cells (TNO155 10 mg/kg BID Daily, Study Day 11), 522.856 mm^3; with Panc 02.03 cells (TNO155 10 mg/kg BID Daily, Study Day 15) it was 571.16 mm^3; in the test with Panc 02.03 cells (TNO155 10 mg/kg BID Daily, Study Day 18), 622.47 mm^3. The “Average Tumor Volumes” value in the test on Panc 02.03 cells (TNO155 10 mg/kg BID Daily, Study Day 22) is on record as 657.502 mm^3; in the test with LS180 cells (Study Day 1) it was 272.732 mm^3; in the test on LS180 cells (Study Day 4), 568.234 mm^3; in the test with LS180 cells (Study Day 8) it was 888.474 mm^3; with LS180 cells (Study Day 11), 1009.462 mm^3; in the test on LS180 cells (Study Day 15) it was 1155.8525 mm^3. Moreover, the “Average Tumor Volumes” value turned out to be 192.408 mm^3 in the test on AsPC-1 cells (setting [2]); 262.654 mm^3 in the test with AsPC-1 cells (TNO155 10 mg/kg BID Daily, Study Day 6); 263.966 mm^3 in the test with AsPC-1 cells (TNO155 10 mg/kg BID Daily, Study Day 9); 301.71 mm^3 in the test on AsPC-1 cells (TNO155 10 mg/kg BID Daily, Study Day 13); 317.812 mm^3 with AsPC-1 cells (TNO155 10 mg/kg BID Daily, Study Day 16); 360.412 mm^3 with AsPC-1 cells (TNO155 10 mg/kg BID Daily, Study Day 20). Moreover, the “Average Tumor Volumes” value in the test on AsPC-1 cells (TNO155 10 mg/kg BID Daily, Study Day 23) turned out to be 456.218 mm^3.
